Where a name gives a salt, the structure may show the parent alone.

For test [1], the target named is muscarinic cholinergic receptor. The experiment in a line: [^3 H]-Cis-methyldioxolane (^3 H-CD) Binding Assay (High Affinity). The settings on record: rat cerebral cortex, ^3 H-CD 1.0 nM, 25° C., 120 minutes, pH 7.4, high affinity agonist conformation.
Test [2] has the same target. In words: [^3 H] Quinuclidinyl Benzilate (^3 H-QNB) Binding Assay. The settings on record: rat cerebral cortex, ^3 H-QNB 0.25 nM, 25° C., 120 minutes, pH 7.4.
In test [3] the test system is presynaptic cholinergic. The settings on record: should disinhibit the release of endogenous acetylcholine; cited from earlier work.
Test [4] concerns postsynaptic cholinergic. Conditions: should mimic the effects of acetylcholine; cited from earlier work.
Test [5] has as its system muscarinic sites. Conditions: cited from earlier work.
Test [6] concerns SDAT patients. The settings on record: compared to the anticholinesterase inhibitor physostigmine; cited from earlier work.
The test system of test [7] is aged monkey. Conditions: aged monkeys; cited from earlier work.

As usually defined, the IC50 is the concentration at which inhibition is half-maximal. Consider `CS(=O)(=O)N1CCC[C@@H]1C#CCN1CCCC1` [(R)-1-(Methylsulfonyl)-2-[3-(1-pyrrolidinyl)-1-propynyl]pyrrolidine, hydrochloride], for which the values for the IC50 in test [1] (hydrochloride) and in test [2] (hydrochloride) were 2.45 µM and 25 µM, respectively.

As for `CS(=O)(=O)N1CCC[C@@H]1C#CCN1CCCC1` [(R)-1-(Methylsulfonyl)-2-[3-(1-pyrrolidinyl)-1-propynyl]pyrrolidine], the IC50 stood at 0.973 µM in test [1] and 23 µM in test [2].

Consider `CC(=O)N1CCC[C@@H]1C#CCN1CCCC1` [(R)-1-Acetyl-2-[3-(1-pyrrolidinyl)-1-propynyl]pyrrolidine], for which the results for the IC50 in test [1] and in test [2] were 0.78 µM and 8.8 µM, respectively.

On to `C(#C[C@H]1CCCN1)CN1CCCC1` [(R)-1-[3-(2-Pyrrolidinyl)-2-propynyl] pyrrolidine, dihydrochloride], for which the IC50 in test [1] (dihydrochloride) was determined as 0.742 µM; in test [2] (dihydrochloride), 2.7 µM.

Turning to `C(#C[C@H]1CCCN1)CN1CCCC1` [(R)-1-[3-(2-Pyrrolidinyl)-2-propynyl]pyrrolidine], the IC50 in test [1] is 0.514 µM; in test [2] it was 3.1 µM.

On to `O=CN1CCC[C@@H]1C#CCN1CCCC1` [(R)-2-(3-(1-Pyrrolidinyl)-1-propynyl]-1-pyrrolidine-carboxaldehyde], for which the figures for the IC50 in test [1] and in test [2] were 3.58 µM and 34 µM, respectively.

Regarding `O=C(N1CCC[C@@H]1C#CCN1CCCC1)C(F)(F)F` [(R)-2-[3-(1-Pyrrolidinyl)-1-propynyl]-1-(trifluoroacetyl)pyrrolidine, dihydrochloride], the IC50 turned out to be 8.57 µM in test [1] (dihydrochloride) and 43 µM in test [2] (dihydrochloride).

On to `O=C(N1CCC[C@@H]1C#CCN1CCCC1)C(F)(F)F` [(R)-2-[3-(1-Pyrrolidinyl)-1-propynyl]-1-(trifluoroacetyl)pyrrolidine], for which the figures for the IC50 in test [1] and in test [2] were 2.58 µM and 40 µM, respectively.

For the compound `CC(C)(C)OC(=O)N1CCC[C@@H]1C#CCN1CCCC1` [(R)-2-[3-(1-Pyrrolidinyl)-1-propynyl]-1-pyrrolidine-carboxylic acid, 1,1-dimethylethyl ester], the IC50 in test [1] turned out to be 0.029 µM; in test [2] it was 6.5 µM.

As for `CS(=O)(=O)N1CCC[C@H]1C#CCN1CCCC1` [(S)-1-(Methylsulfonyl)-2-[3-(1-pyrrolidinyl)-1propynyl]pyrrolidine, hydrochloride], the IC50 in test [1] (hydrochloride) was 8.08 µM; in test [2] (hydrochloride), 47 µM.

With `CS(=O)(=O)N1CCC[C@H]1C#CCN1CCCC1` [(S)-1-(Methylsulfonyl)-2-[3-(1-pyrrolidinyl]-1-propynyl]pyrrolidine], the IC50 is 6.78 µM in test [1] and 43 µM in test [2].

Consider `CC(=O)N1CCC[C@H]1C#CCN1CCCC1` [(S)-1-Acetyl-2-[3-(1-pyrrolidinyl)-1-propynly]-pyrrolidine, hydrochloride], for which the results for the IC50 in test [1] (hydrochloride) and in test [2] (hydrochloride) were 3.26 µM and 73 µM, respectively.

Turning to `CC(=O)N1CCC[C@H]1C#CCN1CCCC1` [(S)-1-Acetyl-2-[3-(1-pyrrolidinyl)-1-propynyl]pyrrolidine], the IC50 in test [1] was 2.71 µM; in test [2], 76 µM.

As to `O=CN1CCC[C@H]1C#CCN1CCCC1` [(S)-2-[3-(1-Pyrrolidinyl)-1-propynyl]1-pyrrolidine-carboxaldehyde, hydrochloride], the IC50 in test [1] (hydrochloride) came out at 11.1 µM; in test [2] (hydrochloride) it was 88 µM.

With `CC(C)(C)OC(=O)N1CCC[C@H]1C#CCN1CCCC1` [(S)-2-[3-(1-Pyrrolidinyl)-1-propynyl]1-pyrrolidine-carboxylic acid, 1,1-dimethylethyl ester], the IC50 in test [1] was 0.247 µM; in test [2], 4.2 µM.

Turning to `O=C(N1CCC[C@H]1C#CCN1CCCC1)C(F)(F)F` [(S)-2-[3-(1-Pyrrolidinyl)-1-propynyl]1-trifluoroacetyl) pyrrolidine, hydrochloride], the results for the IC50 in test [1] (hydrochloride) and in test [2] (hydrochloride) were 3.83 µM and 16 µM, respectively.

Turning to `O=C(N1CCC[C@H]1C#CCN1CCCC1)C(F)(F)F` [(S)-2-[3-(1-Pyrrolidinyl)-1-propynyl]-1-(trifluoroacetyl)pyrrolidine], the values for the concentration for half-maximal inhibition (IC50) in test [1] and in test [2] were 5.47 µM and 18 µM, respectively.

`O=CN1CCC[C@H]1C#CCN1CCCC1` [(S)-2-[3-(1-Pyrrolidinyl)-1-propynyl]-1-pyrrolidinecarboxaldehyde]: the results for the IC50 in test [1] and in test [2] were 5.24 µM and 65 µM, respectively.

Consider `CC(=O)N(C)C(C)C#CCN1CCCC1` (stereo not drawn) [BM-5, N-methyl-N-(1-methyl-4-pyrrolidino-2-butynyl)acetamide], for which the presynaptic cholinergic action entry in test [3] is recorded as “presynaptic cholinergic antagonist”. Besides, the postsynaptic cholinergic action result in test [4] is given as “postsynaptic partial cholinergic agonist”. Further, the “antagonist/agonist action at muscarinic sites” value in test [5] is reported as “antagonist at some muscarinic sites while being an agonist at most others”.

In the case of `COC(=O)C1=CCCN(C)C1` [arecoline], the “improvement in SDAT patients compared to physostigmine” value in test [6] is reported as “more-consistent improvement”. The improvement in performance entry in test [7] is recorded as “significant improvement in performance”.

For `O=C1CCCN1CC#CCN1CCCC1` [oxotremorine], the improvement in performance result in test [7] is reported as “significant improvement in performance”.

Values taken from patent publication US5001142A, “1-substituted-2-(3-amino-1-propynyl)pyrrolidine derivatives” (American Cyanamid Company, priority 1989, dated 1991).
